These results are taken from ChEMBL document CHEMBL2202965 (Bioorg Med Chem Lett, 2012).

Activity calls are given as the source filed them. The calls are words filed in the database; no cut-off is given here. Non-standard residues stand in square brackets, D forms with d. Residues, ends and D or L forms follow the SMILES beside them. ξ: configuration not given here. *: point of attachment. NH(2-(1-naphthyl)ethyl) = c1ccc2c(CCN*)cccc2c1; Phe(4-CONH2) = NC(=O)c1ccc(C[C@H](N)C(=O)O)cc1; Phe(4-COOH) = N[C@@H](Cc1ccc(C(=O)O)cc1)C(=O)O; Tryptamide = c1ccc2c(CCN*)c[nH]c2c1; Tic = O=C(O)[C@@H]1Cc2ccccc2CN1; X3 = c1ccc(-c2ccc(CCN*)cc2)cc1; X2 = c1cc(C2CCCCC2)ccc1CCN*; ξTic = O=C(O)C1Cc2ccccc2CN1; X1 = c1ccc2cc(CCN*)ccc2c1; NHDecyl = CCCCCCCCCCN*; NHHex = CCCCCCN*

Experiment [1] has as its target Kappa-type opioid receptor (Cavia porcellus, UniProt P41144). Put plainly: Displacement of [3H]U69,593 from kappa opioid receptor in guinea pig brain membrane after 2 hrs. The format is cell membranes. (In general: In a radioligand displacement assay an active substance lowers the binding of a labelled ligand.)
Experiment [2] deals with Delta-type opioid receptor (Rattus norvegicus) (UniProt P33533). Put plainly: Displacement of [3H]DSLET from delta opioid receptor in rat brain membrane after 2 hrs relative to DPDPE. Type of experiment: cell membranes.
The target of experiment [3] is Delta-type opioid receptor (Mus musculus) (UniProt P32300). The experiment is described as follows: Agonist activity at delta opioid receptor in mouse vas deferens relative to DPDPE. The format is functional, tissue-based.
For experiment [4], the species on record is Cavia porcellus. The experiment is described as follows: (§1) Partial agonist activity at delta opioid receptor in guinea pig ileum. The format is functional.
Experiment [5] concerns the target Delta-type opioid receptor (Homo sapiens) (UniProt P41143). The experiment is described as follows: Antagonist activity at human delta opioid receptor expressed in HEK293 cells by [35S]GTP binding assay. Type of experiment: functional, cell-based.
Experiment [6] shares this target. Put plainly: Partial agonist activity at human delta opioid receptor expressed in HEK293 cells by [35S]GTP binding assay. The format is functional, cell-based.
For experiment [7] the target is unchanged. The experiment is described as follows: Agonist activity at human delta opioid receptor expressed in HEK293 cells by [35S]GTP binding assay relative to DPDPE. Type of experiment: functional, cell-based.
Experiment [8] is described as follows: Agonist activity at delta opioid receptor in guinea pig ileum. As to conditions: Cavia porcellus.
Experiment [9] can be described thus: as §1. Type of experiment: functional. To be noted: Cavia porcellus.
The species entered for experiment [10] is Cavia porcellus. Put plainly: Agonist activity at delta opioid receptor in guinea pig ileum at 10 uM. Type of experiment: functional, tissue-based.

Chain of Kappa-type opioid receptor (P41144 whole entry): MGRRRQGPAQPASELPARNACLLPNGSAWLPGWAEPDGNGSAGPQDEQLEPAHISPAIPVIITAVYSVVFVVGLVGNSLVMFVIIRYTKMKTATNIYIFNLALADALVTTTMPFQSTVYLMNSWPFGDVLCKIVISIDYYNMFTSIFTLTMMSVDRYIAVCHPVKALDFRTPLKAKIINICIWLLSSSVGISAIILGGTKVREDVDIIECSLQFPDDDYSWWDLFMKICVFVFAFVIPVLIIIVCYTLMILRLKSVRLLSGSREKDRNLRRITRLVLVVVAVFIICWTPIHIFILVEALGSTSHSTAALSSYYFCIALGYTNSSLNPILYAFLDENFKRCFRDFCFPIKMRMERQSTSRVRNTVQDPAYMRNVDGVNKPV
Chain of Delta-type opioid receptor (Homo sapiens) (P41143 whole entry): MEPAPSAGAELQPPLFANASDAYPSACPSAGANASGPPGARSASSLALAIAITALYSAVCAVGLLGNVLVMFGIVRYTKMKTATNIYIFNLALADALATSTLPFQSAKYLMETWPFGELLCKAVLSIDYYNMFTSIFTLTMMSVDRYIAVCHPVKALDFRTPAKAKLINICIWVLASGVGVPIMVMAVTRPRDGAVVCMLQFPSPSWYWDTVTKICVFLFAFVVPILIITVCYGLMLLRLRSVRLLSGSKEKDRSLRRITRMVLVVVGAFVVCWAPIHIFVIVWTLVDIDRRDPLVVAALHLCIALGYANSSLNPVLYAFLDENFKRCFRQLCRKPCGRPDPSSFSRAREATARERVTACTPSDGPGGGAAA
Chain of Delta-type opioid receptor (Rattus norvegicus) (P33533 whole entry): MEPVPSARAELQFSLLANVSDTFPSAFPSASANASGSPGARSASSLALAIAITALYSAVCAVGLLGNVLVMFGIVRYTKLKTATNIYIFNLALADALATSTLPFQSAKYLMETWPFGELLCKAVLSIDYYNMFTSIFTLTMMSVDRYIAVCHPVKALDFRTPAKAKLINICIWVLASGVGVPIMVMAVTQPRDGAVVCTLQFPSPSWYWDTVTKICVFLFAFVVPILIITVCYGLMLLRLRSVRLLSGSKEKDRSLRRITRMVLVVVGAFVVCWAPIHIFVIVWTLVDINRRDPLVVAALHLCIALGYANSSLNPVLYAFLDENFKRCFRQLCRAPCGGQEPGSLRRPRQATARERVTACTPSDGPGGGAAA
Chain of Delta-type opioid receptor (Mus musculus) (P32300 whole entry): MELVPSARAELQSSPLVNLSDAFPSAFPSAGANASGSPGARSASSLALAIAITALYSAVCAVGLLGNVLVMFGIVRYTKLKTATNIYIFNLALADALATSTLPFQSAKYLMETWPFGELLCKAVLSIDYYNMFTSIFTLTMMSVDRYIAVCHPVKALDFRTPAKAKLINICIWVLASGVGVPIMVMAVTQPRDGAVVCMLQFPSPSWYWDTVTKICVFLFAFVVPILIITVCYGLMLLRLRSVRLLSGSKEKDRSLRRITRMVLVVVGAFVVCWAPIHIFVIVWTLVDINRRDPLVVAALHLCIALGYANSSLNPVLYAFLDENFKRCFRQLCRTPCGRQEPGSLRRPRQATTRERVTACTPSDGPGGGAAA

The Ki is a dissociation constant, usually derived from enzyme kinetics or from competition with a known ligand. In [1], `N[C@@H](Cc1ccc(C(=O)NCCc2ccc(C3CCCCC3)cc2)cc1)C(=O)N1Cc2ccccc2C[C@H]1C(=O)N[C@@H](Cc1ccccc1)C(=O)N[C@@H](Cc1ccccc1)C(=O)O` (H-[Phe(4-COOH)](X2)[Tic]FF-OH) [listing 1 of 2 here] returned a Ki of more than 10 µM.
As to `N[C@@H](Cc1ccc(C(=O)NCCc2ccc3ccccc3c2)cc1)C(=O)N1Cc2ccccc2C[C@H]1C(=O)N[C@@H](Cc1ccccc1)C(=O)N[C@@H](Cc1ccccc1)C(=O)O` (H-[Phe(4-COOH)](X1)[Tic]FF-OH), the fold change (FC) in experiment [2] is 5; in experiment [3] it was 2. The same molecule yielded a Ki in [1] of more than 10 µM. In addition, in experiment [4], the outcome was Active.
As to `NC(=O)c1ccc(C[C@H](N)C(=O)N2Cc3ccccc3C[C@H]2C(=O)N[C@@H](Cc2ccccc2)C(=O)N[C@@H](Cc2ccccc2)C(=O)O)cc1` (H-[Phe(4-CONH2)][Tic]FF-OH), the result in experiment [5] was Active. In experiment [1], the Ki is more than 10 µM.
`N[C@@H](Cc1ccc(C(=O)NCCc2ccc(-c3ccccc3)cc2)cc1)C(=O)N1Cc2ccccc2CC1C(=O)N[C@@H](Cc1ccccc1)C(=O)N[C@@H](Cc1ccccc1)C(=O)O` (some centres not stated) (H-[Phe(4-COOH)](X3)[ξTic]FF-OH) gave an ED50 in experiment [6] of 0.413 nM. The same molecule yielded a Ki in experiment [1] of more than 10 µM. The Ratio in experiment [7] was 0.678.
The IC50 is the concentration that gives 50% inhibition. Low readings indicate greater potency in that assay, high ones weaker potency in that assay. Consider `N[C@@H](Cc1ccc(O)cc1)C(=O)N1Cc2ccccc2C[C@H]1C(=O)N[C@@H](Cc1ccccc1)C(=O)N[C@@H](Cc1ccccc1)C(=O)O` (H-Y[Tic]FF-OH), for which the outcome in experiment [5] was Active. In experiment [1], this molecule registered an inhibition constant Ki of more than 10 µM. The molecule further returned an IC50 in experiment [8] of more than 10 µM.
Molecule `CCCCCCCCCCNC(=O)c1ccc(C[C@H](N)C(=O)N2Cc3ccccc3C[C@H]2C(=O)N[C@@H](Cc2ccccc2)C(=O)N[C@@H](Cc2ccccc2)C(=O)O)cc1` (H-[Phe(4-COOH)](NHDecyl)[Tic]FF-OH) returned a Ki in [1] of more than 10 µM.
Regarding `N[C@@H](Cc1ccc(C(=O)NCCc2c[nH]c3ccccc23)cc1)C(=O)N1Cc2ccccc2C[C@H]1C(=O)N[C@@H](Cc1ccccc1)C(=O)N[C@@H](Cc1ccccc1)C(=O)O` (H-[Phe(4-COOH)](Tryptamide)[Tic]FF-OH), the inhibition constant (Ki) in experiment [1] is more than 10 µM. The result in experiment [4] was Active.
With `N[C@@H](Cc1ccc(C(=O)NCCc2ccc(C3CCCCC3)cc2)cc1)C(=O)N1Cc2ccccc2C[C@H]1C(=O)N[C@@H](Cc1ccccc1)C(=O)N[C@@H](Cc1ccccc1)C(=O)O` (H-[Phe(4-COOH)](X2)[Tic]FF-OH) [listing 2 of 2 here], the IC35 in [9] was found to be 0.0234 µM.
As for `N[C@@H](Cc1ccc(C(=O)NCCc2cccc3ccccc23)cc1)C(=O)N1Cc2ccccc2C[C@H]1C(=O)N[C@@H](Cc1ccccc1)C(=O)N[C@@H](Cc1ccccc1)C(=O)O` (H-[Phe(4-COOH)](NH(2-(1-naphthyl)ethyl))[Tic]FF-OH), in experiment [10], the result was inactive. Also, the fold change (FC) in experiment [2] stood at 5; in experiment [3] it was 2. Moreover, the Ki in experiment [1] is more than 10 µM.
In the case of `CCCCCCNC(=O)c1ccc(C[C@H](N)C(=O)N2Cc3ccccc3C[C@H]2C(=O)N[C@@H](Cc2ccccc2)C(=O)N[C@@H](Cc2ccccc2)C(=O)O)cc1` (H-[Phe(4-COOH)](NHHex)[Tic]FF-OH), in [1], the Ki is more than 10 µM.
